Reference: patent US11466032B2, “Cytotoxic agents” (FEMTOGENIX LIMITED, priority 2017, dated 2022)

Legend:
[1] = test system: HexA and MS1 DNA fragments; test: DNA footprinting; assay type: binding; conditions: X is any base, Y is G or C, W is A or T; overnight incubation
Description: The sequence selectivity of 26 and 34 was investigated using a modification of the previously established DNA footprinting assay^25. Following an overnight incubation of the ligand-DNA complexes, the mixture was mixed with strand separation buffer containing 10 mM EDTA, 10 mM NaOH, 0.1% bromophenol blue, 80% formamide and incubated at 100° C. for 3 min. The mixture was then immediately cooled on ice and run on an 8% denaturing gel.
Footprinting reactions were performed as previously described^[5] using the DNA fragments HexA and HexB, which together contain all 64 symmetrical hexanucleotide sequences^[6], and MS1 that contains all possible […] tetranucleotide sequences^[7]. The DNA fragments were obtained by cutting the parent plasmids with HindIII and SacI (for HexA and MS1) or EcoRI and PstI (for HexB), and were labelled at the 3′-end of the HindIII or EcoRI sites with [α-^32P]dATP using reverse transcriptase or exo-Klenow fragment. After gel purification, the radiolabelled DNA was dissolved in 10 mM Tris-HCl pH 7.5 containing 0.1 mM EDTA, at a concentration of about 10 c.p.s per μL as determined on a hand held Geiger counter. 1.5 μL of radiolabelled DNA was mixed with 1.5 μL ligand that had been freshly diluted in 10 mM Tris-HCl pH 7.5, containing 10 mM NaCl. […]

SW48 = test: MTT cytotoxicity assay, 72 hour incubation; assay type: cell-based
Description: (§1) The cytotoxicity of compounds 26, 34, 50,58 and 68 were evaluated in a variety of cell lines using the standard MTT assay for a 72 hour incubation period (Table 1).
(§2) Tumor cell lines were maintained in RPMI1640 medium supplemented with 10% heat-inactivated fetal bovine serum, 2 mM L-glutamine and 1 mM sodium pyruvate. 1800 cells per well were seeded in a volume of 180 μl in a 96-well flat bottom polystyrene plate. The cells were allowed to adhere overnight at 37° C. in a CO2 incubator. Ligands were initially formulated in DMSO, and stocks stored at −80° C. They were then further formulated at lox concentration in RPMI1640 medium. 20 ul of diluted samples were added into each treatment well. On each plate, blank wells with no cells, and untreated wells containing cells, were included. Plates were then cultured at 37° C. in a CO2 incubator for 72 hrs. Cytotoxicity was evaluated using a tetrazolium salt-based assay, the MT assay. After 72 hours, the supernatant was removed from each well and 200 μl of a sterile filtered 500 μg/ml MT solution in water added to each well. The plates were then incubated at 37° C. in a CO2 incubator for 4 hrs. The supernatant was then removed and the formazan crystals formed solubilized by adding 150 μl of DMSO to each well. The plate was then read on a plate reader at 540 nm, and percentage cell survival calculated as follows: ((mean absorbance treated wells at concentration x—mean absorbance blank wells)÷(mean absorbance untreated wells at concentration x—mean absorbance blank wells))×100. Data were plotted as concentration in nM vs. % cell survival in Microsoft Excel, and IC50 values (concentration where cell survival is reduced by a half) were determined from the graph.

MCF-7 = test: MTT cytotoxicity assay, 72 hour incubation; assay type: cell-based; conditions: Homo sapiens, MCF7, 3 runs
Description: as §1, §2

ZR 75-1 = test: MTT cytotoxicity assay, 72 hour incubation; assay type: cell-based; conditions: Homo sapiens, 3 runs
Description: as §1, §2

LIM 1215 = test: MTT cytotoxicity assay, 72 hour incubation; assay type: cell-based
Description: as §1, §2

SK-BR-3 = test: MTT cytotoxicity assay, 72 hour incubation; assay type: cell-based; conditions: Homo sapiens, 3 runs
Description: as §1, §2

SW 620 = test: MTT cytotoxicity assay, 72 hour incubation; assay type: cell-based
Description: as §1, §2

[2] = test system: linear 32P-end-labelled TyrT DNA; test: DNA interstrand cross-linking assay (denaturing polyacrylamide gel); assay type: biochemical; conditions: overnight incubation at 37° C.
Description: The ability of 26 and 34 to cross-link DNA was determined using an assay involving linear double-stranded HexA. TyrT and MS1 DNA fragments (FIG. 5).
Following denaturation conditions (treatment with formamide and heating at 65° C. for 5 min) the DNA strands were completely separated (see control C2, FIG. 6). The presence of an interstrand cross-link holds the denatured strands in close proximity, and cross-linked adducts therefore run as double-stranded DNA on polyacrylamide gel. Talirine and 34 were tested at >10 different concentrations, and the assay was repeated twice. […] C1 and C2 represent controls where C1 is DNA without formic acid, and C2 is DNA without formic acid, but heated thereby forming single strands. Cross-links are clearly detectable at concentrations as low as 10 nM. Using the same assay, the PBD dimer Talirine was also shown to cross-link DNA down to a concentration of 10 nM (FIG. 7).
The preparation of the DNA fragments (FIG. 5) has been previously described^[4]. Briefly, the sequence which had been cloned into the BamHI site of pUC18 was obtained by cutting with HindIII and EcoRI. Radiolabelled DNA fragments were prepared by filling in the 3′-end of the HindIII site with [α-^32P]dATP using Klenow DNA polymerase (exo-).
The radiolabelled DNA fragment was separated from the remainder of the plasmid DNA on a 6% non-denaturing polyacrylamide gel. […]

Compound	general code of the footprints (preferred binding sites) [1]	IC50 (SW48; Homo sapiens, SW48, 3 runs)	IC50 (MCF-7)	IC50 (ZR 75-1)	IC50 (LIM 1215; LIM1215, 3 runs)	IC50 (SK-BR-3)	IC50 (SW 620; Homo sapiens, SW-620, 3 runs)	lowest concentration at which DNA is cross-linked [2]	IC50 (SW48; 3 runs)	IC50 (LIM 1215; 3 runs)	IC50 (SW 620; 3 runs)
COc1ccc(C2=CCN3C(=O)c4cc(OC)c(OCc5cccc(COc6cc7c(cc6OC)C(=O)N6CC=C(c8ccc(OC)cc8)C[C@H]6C=N7)n5)cc4N=C[C@@H]3C2)cc1 [Compound 26, (6aS,6a′S)-3,3′-((Pyridine-2,6-diylbis(methylene))bis(oxy))bis(2-methoxy-8-(4-methoxyphenyl)-7,10-dihydrobenzo[e]pyrido[1,2-α][1,4]diazepin-12(6aH)-one)]	XYWWYWYX	6 pM	6 pM	5 pM	6 pM	6 pM	5 pM				
COc1cc2c(cc1OCc1cccc(COc3cc4c(cc3OC)C(=O)N3CC=C(c5cncnc5)C[C@H]3C=N4)n1)N=C[C@@H]1CC(c3cncnc3)=CCN1C2=O [Compound 50, (6aS,6a′S)-3,3′-((Pyridine-2,6-diylbis(methylene))bis(oxy))bis(2-methoxy-8-(pyrimidin-5-yl)-7,10-dihydrobenzo[e]pyrido[1,2-α][1,4]diazepin-12(6aH)-one)]		3.1 pM			3.7 pM		1350 pM				
COc1cc2c(cc1OCc1cccc(COc3cc4c(cc3OC)C(=O)N3CC=C(c5ccsc5)C[C@H]3C=N4)n1)N=C[C@@H]1CC(c3ccsc3)=CCN1C2=O [Compound 58, (6aS,6a′S)-3,3′-((Pyridine-2,6-diylbis(methylene))bis(oxy))bis(2-methoxy-8-(thiophen-3-yl)-7,10-dihydrobenzo[e]pyrido[1,2-α][1,4]diazepin-12(6aH)-one)]		8.6 pM			23 pM		92 pM				
COc1cc2c(cc1OCc1cccc(COc3cc4c(cc3OC)C(=O)N3CC=C(c5cccs5)C[C@H]3C=N4)n1)N=C[C@@H]1CC(c3cccs3)=CCN1C2=O [Compound 68, (6aS,6a′S)-3,3′-((Pyridine-2,6-diylbis(methylene))bis(oxy))bis(2-methoxy-8-(thiophen-2-yl)-7,10-dihydrobenzo[e]pyrido[1,2-α][1,4]diazepin-12(6aH)-one)]		12 pM			13 pM		30 pM				
Talirine [reference compound]								10 nM	3 pM	434 pM	17 pM
